{"source": "patent US11666600B2", "about": "“Methods for culturing and/or differentiating hematopoietic stem cells into progenitors and uses thereof” (HEMA-QUEBEC, priority 2015, dated 2023)", "key": {"cord blood CD34+ cells": {"test_system": "cord blood CD34+ cells", "experiment": "Expansion of CD34+/CD41+ megakaryocytic progenitors from cord blood CD34+ cells", "type": "cell-based, human", "details": "39° C. + PIC2 500 nM; 14 days; SFEM + BS1; FIG. 7", "method": "Human cord blood (CB) was collected after obtaining written informed consent from donors, following our institutional Research Ethics Committee guidelines. Mononuclear cells (MNCs) were first separated over a Ficoll-Hypaque™ density gradient (GE Healthcare), then cryopreserved at −180° C. in Cryostor CS10™ medium ([…] Technologies). Thawed MNCs from six to eight CB were pooled before CD34 isolation. CB CD34+ cells were enriched by positive selection using the EasySep™ CD34 enrichment kit, according to the manufacturer's instructions ([…] Technologies). […]\nCellular counts and viability were determined by adding Solution 18 (Acridine Orange and DAPI solution, ChemomMetec) and using NucleoCounter™ NC-250 for detection (ChemomMetec).\nFor cells expanded in conditions favoring differentiation towards the MK lineage, surface markers were detected using the following antibodies: CD34-FITC, CD41a-APC and CD42b-PE. […] All samples were analyzed on an Accuri™ C6 flow cytometer (BD Biosciences), and raw data were analyzed with FCS Express 5 Flow Research Edition software from at least 15 000 viable cell events acquired for each sample. […]\nCellular counts and viability were determined as described in Example 6.5. […]"}, "[1]": {"test_system": "CD34+/CD45RA− mobilized peripheral blood cells", "details": "Fares et al., 2014; cited from earlier work"}, "[2]": {"test_system": "aryl hydrocarbon receptor (AhR) pathway", "details": "Fares et al., 2014; cited from earlier work"}}}
{"smiles": "COC(=O)c1ccc2c(c1)[nH]c1ncnc(NCCCN3CCCCC3)c12", "note": "[PIC2, Methyl 4-((3-(piperidin-1-yl)propyl)amino)-9H-pyrimido[4,5-b]indole-7-carboxylate]", "values": [{"measurement": "combined use of mild hyperthermia and PIC2 on expansion of CB CD34+/CD41+ cells", "setting": "cord blood CD34+ cells", "value": "synergistic effect"}, {"measurement": "expansion of CD34+/CD45RA− mobilized peripheral blood cells (enriched in LT-HSCs)", "setting": "[1]", "value": "stimulate expansion"}, {"measurement": "suppression of the aryl hydrocarbon receptor (AhR) pathway", "setting": "[2]", "value": "without acting as suppressors"}]}
